Laboratory results taken from paper PMC10761933, “Acquired and intrinsic resistance to vemurafenib in BRAF^V600E ‐driven melanoma brain metastases” (FEBS Open Bio, 2023).

What was measured:
intracranial A375 tumors [1] = experiment: Immunohistochemical analysis of vemurafenib‐resistant A375 melanoma brain metastases; assay type: in vivo; details: Abcb1a/b;Abcg2−/− mice, 10 mg·kg^−1 × 10d, vs untreated
Procedure: Mouse brains were fixed in 4% (v/v) formaldehyde. Alternatively, whole heads without skin were fixed in 4% (v/v) formaldehyde and 5% (v/v) glacial acetic acid and subsequently decalcified using a 6.5% (v/v) formic acid solution for 3 days at 37 °C. After fixation, samples were paraffin embedded and sliced into 4 μm thick sections. Whole head slides were stained for hematoxylin and eosin (H&E), human vimentin (1 : 4000; M0725; DakoCytomation, Glostrup, Denmark), P‐gp (1 : 200; 13978; Cell Signaling Technology, Danvers, MA, USA), BCRP (1 : 400; ab24115; Abcam, Cambridge, UK), and CD31 (1 : 200; ab28364; Abcam). Vessel positivity for P‐gp, BCRP, and CD31, as quantified in Fig. 1B, was manually scored in at least 200 vessels per staining. Specific antibody staining for P‐gp and BCRP was validated previously using whole head slices from Abcb1a/b;Abcg2 ^ −/− mice (fig. S2 from).
Brain slides were stained for H&E, PDGFRβ (1 : 50; 3169; Cell Signaling Technology), phospho‐MET (1 : 150; 3077; Cell Signaling Technology), MET (1 : 100; AF527; R&D Systems, Minneapolis, MN, USA), phospho‐IGF1R (1 : 40 000; sc‐101703; Santa Cruz Biotechnology, Dallas, TX, USA), AXL (1 : 100; 8661; Cell Signaling Technology), NGFR (1 : 400; 8238; Cell Signaling Technology), phospho‐EGFR (1 : 600; ab40815; Abcam), EGFR (1 : 200; ab52894; Abcam), BRAF^V600E (1 : 100; E19290; SpringBioscience, Pleasanton, CA, USA), phospho‐ERK1/2 (1 : 200; 4370; Cell Signaling Technology), phospho‐AKT (1 : 8000; 4060; Cell Signaling Technology), phospho‐S6 (1 : 1000; 2211; Cell Signaling Technology), phospho‐4EBP1 (1 : 100; 2855; Cell Signaling Technology), 4EBP1 (1 : 1200; 9644; Cell Signaling Technology), SOX10 (1 : 100; sc‐17342; Santa Cruz Biotechnology), MITF (1 : 100; 284 M‐94; Cell Marque, Rocklin, CA, USA), and Ki‐67 (1 : 3000; ab15580; Abcam).

intracranial A375 tumors [2] = experiment: Efficacy against intracranial A375 melanoma tumors (BLI, survival); assay type: in vivo, mice
Procedure: For subcutaneous xenograft models, 30 μL of cell suspension containing 3 × 10^6 A375 cells was injected into both flanks of FVB WT and Abcb1a/b;Abcg2 ^ −/− nude mice. For xenograft MBM models, stereotactic intracranial injections (A375 and Mel57) or intracarotid injections (K1735) of melanoma cells were performed as described previously. For intracranial injections, FVB nude mice were injected intracranially with 2 μL of A375 or Mel57 cell suspension containing 1 × 10^5 cells 2 mm lateral, 1 mm anterior, and 3 mm ventral from the bregma. For intracarotid injections, 1 × 10^5 cells in 100 μL HBSS were injected in the left common carotid artery of C3H/HeN mice. Tumor growth was measured by bioluminescence imaging (BLI) for intracranial tumors and by caliper for subcutaneous tumors. The volume of subcutaneous tumors was calculated in mm^3 using the modified ellipsoid formula (volume = 0.5 × length × width^2). Bioluminescence images were acquired following i.p. D‐luciferin (150 mg·kg^−1; Promega) using an IVIS 200 or IVIS Spectrum system with LIVING IMAGE software v4.5 (both PerkinElmer, Waltham, MA, USA). Animals were stratified into treatment groups to achieve a similar mean bioluminescence reading within each cohort. The bioluminescence intensity of each individual animal on the day of the start of treatment (Day 0) was arbitrarily set at 100%. All subsequent measurements were recorded relative to this first measurement and converted to their log values. Mean ± standard error (SE) values were calculated and plotted in graphs.
For the subcutaneous tumor model, therapy was initiated 2 weeks after implantation, when the tumor volume exceeded 40 mm^3. FVB WT and Abcb1a/b;Abcg2 ^ −/− nude mice (n = 8) received 25 and 10 mg·kg^−1 of vemurafenib daily, respectively. Control mice (n = 8) received vehicle. Tumor development was assessed by caliper twice a week. For the intracranial tumor model, treatment was started about 2 weeks after intracranial injection of tumor cells, when full‐blown tumors were present in all animals. WT and Abcb1a/b;Abcg2 ^ −/− nude mice received vehicle, 25 mg·kg^−1 vemurafenib, 10 mg·kg^−1 vemurafenib plus 100 mg·kg^−1 elacridar, or 10 mg·kg^−1 vemurafenib once daily for 10 consecutive days or in a 5 days on/2 days off/5 days on schedule, as indicated in the relevant figure panels. Tumor growth was monitored by BLI every 4 or 5 days. Mice were weighed daily weighed examined for abnormalities. The mice were humanely sacrificed based on BLI results or when weight loss exceeded 20% of the initial body weight.

## CCCS(=O)(=O)Nc1ccc(F)c(C(=O)c2c[nH]c3ncc(-c4ccc(Cl)cc4)cc23)c1F [vemurafenib]
Intracranial A375 tumors [1]
  PDGFRβ expression (immunohistochemistry): appeared to be diminished
  proliferation marker Ki‐67 (immunohistochemistry): similarly unaffected
Intracranial A375 tumors [1]; n = 2 per group
  immunohistochemical staining of phospho‐S6 and phospho‐4EBP1: profoundly reduced
Intracranial A375 tumors [2]; Abcb1a/b;Abcg2−/− mice, 10 mg·kg^−1 q.d. × 10d
  survival: not significantly extended
Intracranial A375 tumors [2]; Abcb1a/b;Abcg2−/− mice, 10 mg·kg^−1 q.d. × 10d, first 3 days of treatment, regrowth under therapy afterwards
  tumor growth of intracranial A375 tumors: induced tumor regression
Intracranial A375 tumors [2]; Abcb1a/b;Abcg2−/− mice, two cycles of 5 days of 25 mg·kg^−1 daily oral
  tumor growth of intracranial A375 tumors: induced regression and subsequent tumor stasis
Intracranial A375 tumors [2]; Abcb1a/b;Abcg2−/− mice, two cycles of 5 days of 25 mg·kg^−1 daily oral, vs vehicle
  survival: a survival difference was already established
Intracranial A375 tumors [2]; WT mice, 10 mg·kg^−1 vemurafenib + 100 mg·kg^−1 elacridar
  antitumor efficacy against intracranial A375 tumors with pharmacological P‐gp/BCRP inhibition vs Abcb1a/b;Abcg2−/− mice at same dose: less efficacious
Intracranial A375 tumors [2]; WT mice, 25 mg·kg^−1 q.d. × 10d
  tumor growth of intracranial A375 tumors: only reduced A375 growth speed
